In US20180110754A1, “CENICRIVIROC FOR THE TREATMENT OF FIBROSIS” (Tobira Therapeutics, Inc., priority 2015, published 2018):
“And” between values parts separate entries of the source, which are not always exact repeats. Equal entries are not always repeated.

Key:
HIV-1 [1] = assay: Study 201 Phase 2a 10-day monotherapy: HIV-1 RNA and resistance; format: in vivo, human; conditions: for Median nadir change from baseline in HIV-1 RNA: 10 days
Description: (§1) Participants were required to be antiretroviral treatment-experienced, CCR5 antagonist-naive, with HIV-1 RNA levels of at least 5000 copies/mL and CD4+ cell counts of at least 250 cells/mm^3 was performed.
In Study 201, drug resistance testing was performed at Baseline, Day 7, and Day 40 (or at the “Early Termination” visit, if applicable).

CCR7 = CCR7 (Homo sapiens, UniProt P32248); assay: Inhibition of ligand binding to CCR7
Chain of CCR7 (P32248 25-378): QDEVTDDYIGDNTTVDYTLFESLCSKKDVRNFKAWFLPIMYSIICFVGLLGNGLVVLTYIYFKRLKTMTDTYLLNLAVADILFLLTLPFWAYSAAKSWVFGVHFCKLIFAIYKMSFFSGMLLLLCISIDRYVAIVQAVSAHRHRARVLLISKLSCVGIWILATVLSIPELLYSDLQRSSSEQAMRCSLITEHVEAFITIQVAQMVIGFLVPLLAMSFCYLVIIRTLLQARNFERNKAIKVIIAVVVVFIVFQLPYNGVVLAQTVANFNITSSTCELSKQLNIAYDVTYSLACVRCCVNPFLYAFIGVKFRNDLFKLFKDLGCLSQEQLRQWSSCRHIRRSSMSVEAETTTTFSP

[2] = Mouse thioglycollate-induced peritonitis model: CVC plasma levels (LC/MS/MS); format: in vivo
Description: (§2) The lavage fluid was placed on wet ice pending processing for total and differential cell counts using the Advia analyzer. Following the lavage collection, a blood sample (0.7 mL) was collected from each mouse by intracardiac puncture or from the vena cava (collection time was recorded). 0.5 mL of blood was placed in an EDTA tube, transferred to clinical pathology and analyzed for differential cell counts using the Advia analyzer. 0.2 mL of blood was placed in a K2EDTA tube and processed to plasma. The plasma was collected by centrifugation (3000 rpm for 10 minutes at 4° C.) and placed on dry ice. The samples were analyzed to determine CVC plasma levels. After blood collection, the animals were then exsanguinated by sectioning of the abdominal aorta.
Animals received the test article by oral gavage from Days 1 to 5. The twice daily (BID) dosing in Groups 2 to 5 was separated by approximately 12 hours. Blood samples were collected on Day 6 for assessment of plasma levels. Samples were collected by intracardiac puncture or from the vena cava, placed in a K2EDTA tube, and processed to plasma. Samples were stored frozen at −70 to −90° until analyzed. Due to the sacrifice time (48 hours after thioglycollate administration) being dictated by the primary endpoint, samples were collected approximately 14 hours postdose for Groups 2-5 and 26 hours postdose for the remaining groups. No samples were collected for animals 105, 201, 303 and 503.

Mouse toxicity studies = format: in vivo; conditions: doses up to 2000 mg/kg/day, no surgical procedures
[3] = Study 201: safety and tolerability; format: in vivo, human
Description: as §1

[4] = system: STAM mouse model of Non-alcoholic Steatohepatitis; assay: STAM mouse model of NASH, week 9 (anti-NASH/fibrosis effects); format: in vivo; conditions: for Sirius red-positive area (fibrosis area): perivascular space included; for Modified Sirius red-positive area: perivascular space subtracted
Description: NASH was induced in male mice by a single injection of 200 μg streptozotocin 2 days after birth (causing impaired glucose control), followed by a high fat diet from 4 weeks of age. […] Animals were sacrificed at 9 weeks of age, and biochemical, gene expression, and histologic evaluations of the liver were conducted.

[5] = Mouse thioglycollate-induced peritonitis model: circulating blood cell counts; conditions: in vivo
Description: as §2
Statistical Analysis: One-way ANOVA with post-hoc Dunnett's statistical analysis was performed on differential cell counts obtained from lavage and blood samples. The analysis was performed in comparison to Group 2.

HIV-1 [6] = assay: Ex vivo intracellular HIV DNA qPCR in PBMCs of Study 202 participants; set-up: species or system human; conditions: EFV 600 mg, week 24
Description: Intracellular DNA qPCR. Total DNA was extracted, quantified, and stored at −80 C.
The Mann-Whitney test was used to analyze in vitro intracellular HIV DNA levels for all three treatment groups. All data were analyzed using Prism 5 software.

[7] = CVC-high 100 mg/kg/day, week 9, listed as Cenicriviroc
[8] = CVC-low 20 mg/kg/day, week 9, listed as Cenicriviroc

CCCCOCCOc1ccc(-c2ccc3c(c2)/C=C(/C(=O)Nc2ccc([S@@+]([O-])Cc4cncn4CCC)cc2)CCCN3CC(C)C)cc1 [CVC, (S)-8-[4-(2-Butoxyethoxy)phenyl]-1-isobutyl-N-(4-{[(1-propyl-1H-imidazol-5-yl)methyl]sulfinyl}phenyl)-1,2,3,4-tetrahydro-1-benzazocine-5-carboxamide]
Median nadir change from baseline in HIV-1 RNA (HIV-1 [1]; 25 mg once daily): −0.7 log^10 copies/mL | Median nadir change from baseline in HIV-1 RNA (HIV-1 [1]; 50 mg once daily): −1.6 log^10 copies/mL | Median nadir change from baseline in HIV-1 RNA (HIV-1 [1]; 75 mg once daily): −1.8 log^10 copies/mL | Median nadir change from baseline in HIV-1 RNA (HIV-1 [1]; 150 mg once daily): −1.7 log^10 copies/mL | Drug resistance testing (Baseline, Day 7, Day 40) (HIV-1 [1]; all subjects with evaluable samples): fully susceptible | Inhibition of ligand binding to CCR7 (CCR7): did not inhibit | Plasma levels at the approximate trough (14 hours postdose) ([2]; BID dosing, Day 6): increased in a dose-related manner | concentration at 14.5 h ([2]; mouse, plasma, mice, Day 6, Group 3, 5 mg/kg/day (BID) oral, ~14 hours postdose (actual 14.5 hours), N=2, 3 of 5 samples below LLOQ (10 ng/mL)): 13.5 ng/mL | concentration at 15 h ([2]; mouse, plasma, mice, Day 6, Group 4, 20 mg/kg/day (BID) oral, ~14 hours postdose (actual 15 hours)): 81.2 ± 22.8 ng/mL | concentration at 15.5 h ([2]; mouse, plasma, mice, Day 6, Group 5, 100 mg/kg/day (BID) oral, ~14 hours postdose (actual 15.5 hours)): 551 ± 253 ng/mL | concentration at 28 h ([2]; mouse, plasma, mice, Day 6, Group 6, 20 mg/kg/day (QD) oral, ~26 hours postdose (actual 28 hours)): 25.7 ± 8.1 ng/mL | Tolerability (Mouse toxicity studies): well tolerated | Subjects with ALT and/or AST elevations (all Grade 1) ([3]; 25 mg): 2 subjects | Subjects with ALT and/or AST elevations (all Grade 1) ([3]; 50 mg): 2 subjects | Subjects with ALT and/or AST elevations (all Grade 1) ([3]; 100 mg): 1 subject | Subjects with ALT and/or AST elevations (all Grade 1) ([3]; 150 mg): 1 subject | Tolerability ([3]; 25-150 mg once daily, 10 days): generally well tolerated | Treatment-emergent AE: diarrhea ([3]; Study 201, all subjects): 16.7% | Treatment-emergent AE: fatigue ([3]; Study 201, all subjects): 11.0% | Treatment-emergent AE: headache ([3]; Study 201, all subjects): 14.8% | Treatment-emergent AE: nausea ([3]; Study 201, all subjects): 18.5% | Grade 2-4 elevations in ALT or AST ([3]; during the study): No Grade 2-4 elevations | Effect on body or liver weight, whole blood glucose, or liver triglycerides ([4]; 20 and 100 mg/kg/day, week 9): no effect | Decrease of collagen type 1 mRNA in whole liver lysates (real-time RT-PCR) ([4]; CVC 20 and 100 mg/kg/day, week 9): 27-37% | Body weight ([4]; CVC-high 100 mg/kg/day, week 9): 18.7 ± 0.9 g | F4/80-positive area (inflammation area) ([4]; CVC-high 100 mg/kg/day, week 9): 4.96±0.60% | F4/80 and CD16/32-positive cells ([4]; CVC-high 100 mg/kg/day, week 9): 41.5±8.2% | F4/80 and CD206-positive cells ([4]; CVC-high 100 mg/kg/day, week 9): 33.1±3.0% | Liver hydroxyproline ([4]; CVC-high 100 mg/kg/day, week 9): 0.62±0.09 μg/mg total protein | Liver triglyceride ([4]; CVC-high 100 mg/kg/day, week 9): 51.7±14.1 mg/g liver | Liver weight ([4]; CVC-high 100 mg/kg/day, week 9): 1307 ± 119 mg | NAFLD Activity Score (NAS) ([4]; CVC-high 100 mg/kg/day, week 9): 3.7±0.8 | Oil red-positive area (fat deposition area) ([4]; CVC-high 100 mg/kg/day, week 9): 7.23±3.59% | Plasma ALT ([4]; CVC-high 100 mg/kg/day, week 9): 51±13 U/L and 52±13 U/L | Plasma MCP-1 ([4]; CVC-high 100 mg/kg/day, week 9): 91 ± 14 pg/mL | Plasma MIP-1β ([4]; CVC-high 100 mg/kg/day, week 9): 20 ± 4 pg/mL | TUNEL-positive cells ([4]; CVC-high 100 mg/kg/day, week 9): 39.0±5.3% | Whole blood glucose ([4]; CVC-high 100 mg/kg/day, week 9): 585 ± 91 mg/dL | Body weight [4, 7]: 18.7 ± 0.9 g | F4/80-positive area (inflammation area) [4, 7]: 4.96 ± 0.60% | F4/80 and CD16/32-positive cells [4, 7]: 41.5 ± 8.2% | F4/80 and CD206-positive cells [4, 7]: 33.1 ± 3.0% | Liver hydroxyproline [4, 7]: 0.62 ± 0.09 μg/mg total protein | Liver triglyceride [4, 7]: 51.7 ± 14.1 mg/g liver | Liver weight [4, 7]: 1307 ± 119 mg | NAFLD Activity Score (NAS) [4, 7]: 3.7 ± 0.8 | Oil red-positive area (fat deposition area) [4, 7]: 7.23 ± 3.59% | Plasma ALT [4, 7]: 52 ± 13 U/L | Plasma MCP-1 [4, 7]: 91 ± 14 pg/mL | Plasma MIP-1β [4, 7]: 20 ± 4 pg/mL | TUNEL-positive cells [4, 7]: 39.0 ± 5.3% | Whole blood glucose [4, 7]: 585 ± 91 mg/dL | Sirius red-positive area (fibrosis area) [4, 7]: 0.64 ± 0.19% | Modified Sirius red-positive area [4, 7]: 0.20 ± 0.06% | Modified positive area (%), per mouse ([4]; CVC-high, Sirius red, mice 301-306 (raw data), listed as Cenicriviroc): 0.12% and 0.26% and 0.17% and 0.27% and 0.18% and 0.20% | Modified positive area (%), individual photo ([4]; CVC-high, Sirius red, mice 301-306, photos 1-5 (raw data), listed as Cenicriviroc): 0.17% (2×) and 0.28% (2×) and 0.22% (2×) and 0.08% (3×) and 0.05% and 0.09% (2×) and 0.32% and 0.07% (3×) and 0.16% and 0.20% (2×) and 0.68% and 0.23% (2×) and 0.27% and 0.12% and 0.11% and 0.67% and 0.26% and 0.06% and 0.10% and 0.41% | Number of animals with Hepatocyte ballooning score 0 ([4]; CVC-high, week 9, n=6): 1 | Number of animals with Hepatocyte ballooning score 1 ([4]; CVC-high, week 9, n=6): 2 | Number of animals with Hepatocyte ballooning score 2 ([4]; CVC-high, week 9, n=6): 3 | Number of animals with Lobular inflammation score 1 ([4]; CVC-high, week 9, n=6): 3 | Number of animals with Lobular inflammation score 2 ([4]; CVC-high, week 9, n=6): 3 | Number of animals with Steatosis score 1 ([4]; CVC-high, week 9, n=6): 5 | Body weight ([4]; CVC-low 20 mg/kg/day, week 9): 19.5 ± 2.0 g | F4/80-positive area (inflammation area) ([4]; CVC-low 20 mg/kg/day, week 9): 4.77±1.02% | F4/80 and CD16/32-positive cells ([4]; CVC-low 20 mg/kg/day, week 9): 38.7±7.6% | F4/80 and CD206-positive cells ([4]; CVC-low 20 mg/kg/day, week 9): 34.7±6.3% | Liver hydroxyproline ([4]; CVC-low 20 mg/kg/day, week 9): 0.63±0.05 μg/mg total protein | Liver triglyceride ([4]; CVC-low 20 mg/kg/day, week 9): 48.5±16.1 mg/g liver | Liver weight ([4]; CVC-low 20 mg/kg/day, week 9): 1334 ± 99 mg | NAFLD Activity Score (NAS) ([4]; CVC-low 20 mg/kg/day, week 9): 4.0±0.6 | Oil red-positive area (fat deposition area) ([4]; CVC-low 20 mg/kg/day, week 9): 6.51±3.88% | Plasma ALT ([4]; CVC-low 20 mg/kg/day, week 9): 58±12 U/L | Plasma MCP-1 ([4]; CVC-low 20 mg/kg/day, week 9): 68 ± 16 pg/mL | Plasma MIP-1β ([4]; CVC-low 20 mg/kg/day, week 9): 18 ± 2 pg/mL | TUNEL-positive cells ([4]; CVC-low 20 mg/kg/day, week 9): 43.3±2.9% | Whole blood glucose ([4]; CVC-low 20 mg/kg/day, week 9): 585 ± 91 mg/dL | Body weight [4, 8]: 19.5 ± 2.0 g | F4/80-positive area (inflammation area) [4, 8]: 4.77 ± 1.02% | F4/80 and CD16/32-positive cells [4, 8]: 38.7 ± 7.6% | F4/80 and CD206-positive cells [4, 8]: 34.7 ± 6.3% | Liver hydroxyproline [4, 8]: 0.63 ± 0.05 μg/mg total protein | Liver triglyceride [4, 8]: 48.5 ± 16.1 mg/g liver | Liver weight [4, 8]: 1334 ± 99 mg | NAFLD Activity Score (NAS) [4, 8]: 4.0 ± 0.6 | Oil red-positive area (fat deposition area) [4, 8]: 6.51 ± 3.88% | Plasma ALT [4, 8]: 58 ± 12 U/L | Plasma MCP-1 [4, 8]: 68 ± 16 pg/mL | Plasma MIP-1β [4, 8]: 18 ± 2 pg/mL | TUNEL-positive cells [4, 8]: 43.3 ± 2.9% | Whole blood glucose [4, 8]: 585 ± 91 mg/dL | Sirius red-positive area (fibrosis area) [4, 8]: 0.66 ± 0.16% | Modified Sirius red-positive area [4, 8]: 0.29 ± 0.14% | Number of animals with Hepatocyte ballooning score 1 ([4]; CVC-low, week 9, n=6): 3 | Number of animals with Hepatocyte ballooning score 2 ([4]; CVC-low, week 9, n=6): 3 | Number of animals with Lobular inflammation score 1 ([4]; CVC-low, week 9, n=6): 3 | Number of animals with Lobular inflammation score 2 ([4]; CVC-low, week 9, n=6): 3 | Number of animals with Steatosis score 1 ([4]; CVC-low, week 9, n=6): 6 | Increase in plasma monocyte chemotactic protein-1 levels ([4]; high dose 100 mg/kg/day, week 9): 1.5 fold | Increase in plasma monocyte chemotactic protein-1 levels ([4]; low dose 20 mg/kg/day, week 9): 1.1 fold | Circulating blood cell counts [5]: no clear changes

O=C1Nc2ccc(Cl)cc2[C@@](C#CC2CC2)(C(F)(F)F)O1 [EFV, efavirenz, reference compound]
Full-length intracellular HIV DNA, mean fold-change from baseline (HIV-1 [6]): 0.825 fold | Strong-stop intracellular HIV DNA, mean fold-change from baseline (HIV-1 [6]): 1.01 fold
